Assay results from paper PMC9214036, “Design and Synthesis of Novel PRMT1 Inhibitors and Investigation of Their Effects on the Migration of Cancer Cell” (Frontiers in Chemistry, 2022).
Where a name gives a salt, the structure may show the parent alone.

Tests used:
A549 cells [1] = assay: Western blot of PRMT-related proteins (SDMA, ADMA, DDAH, PRMT1) in A549 cells; assay type: cell-based, human; details: WCJ-394 5, 10, 20 μM, 48 h
Method: (§1) A549 cells in the logarithmic growth phase were seeded into a 6-well cell culture plate at a density of 3 × 10^5 cells per well.
(§2) A549 cells were lysed in RIPA buffer, which contains protease and phosphatase inhibitors, and then harvested in Eppendorf tubes for centrifugation (14,000 rpm for 10 min at 4°C) to remove cell debris. The supernatants were transferred into new Eppendorf tubes, and the protein concentration was quantified with a BCA kit (Thermo Fisher). The protein samples were separated by 10% SDS-PAGE and transferred onto polyvinylidene difluoride (PVDF) membranes. The membranes were blocked for 1 h at room temperature in 5% BSA and then incubated with the corresponding primary antibodies overnight at 4°C and then incubated with secondary antibodies for another 1 h at room temperature. After being washed with TBST buffer three times, the PVDF membranes were visualized with ECL reagents (Millipore) and the Western blot results were further analyzed by ImageJ software (National Institutes of Health).

A549 cells [2] = assay: Scratch wound healing assay, TGF-β1-induced A549 cell migration; assay type: cell-based, human
Method: In the scratch wound healing assay, the percentages of scratch widths at 24 and 48 h compared to that of 0 h were used to denote the rate of A549 cell migration. As shown in Figures 6A–C, the TGF-β1 treatment promoted the scratched wound closure.
The monolayer cell was scratched with a new 10 μl pipette tip across the center of the well, and the detached cells were gently rinsed with PBS buffer. […] The scratch was photographed through a microscope at ×100 magnification at 0, 24, and 48 h. Then, the scratch width was quantified by ImageJ software and the rate of wound closure was calculated with the final values expressed as a migration percentage of the scratch width relative to 0 h.

PRMT6 = PRMT6 (Homo sapiens, UniProt Q96LA8); assay: AlphaLISA selectivity assay, PRMT6; assay type: biochemical; details: read-out: IC50 against PRMT6
PRMT6, sequence (Q96LA8 whole entry): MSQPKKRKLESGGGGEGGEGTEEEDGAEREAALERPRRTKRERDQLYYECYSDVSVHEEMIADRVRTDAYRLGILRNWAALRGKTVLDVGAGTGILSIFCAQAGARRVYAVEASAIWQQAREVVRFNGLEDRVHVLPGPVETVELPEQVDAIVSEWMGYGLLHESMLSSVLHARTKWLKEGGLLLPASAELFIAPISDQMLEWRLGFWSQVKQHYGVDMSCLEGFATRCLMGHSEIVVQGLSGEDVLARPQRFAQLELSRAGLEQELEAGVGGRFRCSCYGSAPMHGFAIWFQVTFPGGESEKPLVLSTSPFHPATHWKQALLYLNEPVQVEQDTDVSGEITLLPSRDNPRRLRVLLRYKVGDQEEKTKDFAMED
Method: (§3) […]. […] Next, 5 μl of enzyme solution was transferred to the assay plate and incubated at room temperature for 15 min. Then, 5 μl of substrate solution was added to each well to start the reaction. After incubation at room temperature for 30 min (PRMT4,6) and 60 min (PRMT3,8), 15 μl of acceptor and donor bead mix solution were added to the assay plate and incubated at room temperature for 60 min with subdued light. The signal was collected with Envision or EnSpire with Alpha mode. The data were analyzed in GraphPad Prism 5 to obtain IC50 values.

TGF-β signaling = assay: cells; details: 18 h, read-out: IC50, inhibition of TGF-β signaling
Method: The medium was changed into DMEM with 0.1% FBS. […] The final concentration of DMSO should be maintained at 0.1%. After incubation, the medium was removed and the cells were rinsed with PBS to remove any residual compound. One hundred microliters of the Steady-Glo® Luciferase Assay reagent (Promega) was added to each well, and the cells were lysed in the dark for 10 min on a horizontal shaker. The luciferase activity was measured in a luminometer.

A549 cells [3] = assay: Transwell migration assay, TGF-β1-induced A549 cell migration; assay type: cell-based, human; details: TGF-β1, WCJ-394 pretreatment 5, 10, 20 μM
Method: A549 cells in the logarithmic growth phase were resuspended with a serum-free DMEM medium and seeded into the 8-μm transwell filter inserts at a density of 8 × 10^3 cells per well; meanwhile, 600 μl medium containing 10% FBS was added into the lower chambers of the 24-well cell culture plate. […] After incubation, the cells in the upper chambers were carefully removed with a cotton swab, while the cells that had traversed to the bottom side of the membrane were fixed with 4% paraformaldehyde for 15 min and stained with 0.1% crystal violet for 20 min. The chambers were washed with PBS buffer to remove extra crystal violet. Three fields of view were randomly taken and photographed from the central and surrounding parts of each membrane under a microscope at ×100 magnification, and cell number was calculated by ImageJ software.

PRMT3 = PRMT3 (Homo sapiens, UniProt O60678); assay: AlphaLISA selectivity assay, PRMT3; assay type: biochemical; details: read-out: IC50 against PRMT3
PRMT3, sequence (O60678 whole entry): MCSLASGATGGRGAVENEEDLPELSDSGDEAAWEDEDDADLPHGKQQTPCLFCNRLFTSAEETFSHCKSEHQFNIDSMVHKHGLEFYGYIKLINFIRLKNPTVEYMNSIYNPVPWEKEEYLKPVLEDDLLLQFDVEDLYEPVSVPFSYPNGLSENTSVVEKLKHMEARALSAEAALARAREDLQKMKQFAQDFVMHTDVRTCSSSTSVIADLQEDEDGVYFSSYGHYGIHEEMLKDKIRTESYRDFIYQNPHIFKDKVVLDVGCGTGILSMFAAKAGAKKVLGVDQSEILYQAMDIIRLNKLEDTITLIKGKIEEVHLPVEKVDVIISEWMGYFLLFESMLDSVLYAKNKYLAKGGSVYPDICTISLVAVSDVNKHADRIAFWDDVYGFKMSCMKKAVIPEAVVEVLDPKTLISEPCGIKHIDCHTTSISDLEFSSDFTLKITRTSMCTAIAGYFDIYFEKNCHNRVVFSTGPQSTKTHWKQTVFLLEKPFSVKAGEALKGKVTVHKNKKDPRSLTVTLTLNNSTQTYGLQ
Method: as §3

PRMT8 = PRMT8 (Homo sapiens, UniProt Q9NR22); assay: AlphaLISA selectivity assay, PRMT8; assay type: biochemical; details: read-out: IC50 against PRMT8
PRMT8, sequence (Q9NR22 whole entry): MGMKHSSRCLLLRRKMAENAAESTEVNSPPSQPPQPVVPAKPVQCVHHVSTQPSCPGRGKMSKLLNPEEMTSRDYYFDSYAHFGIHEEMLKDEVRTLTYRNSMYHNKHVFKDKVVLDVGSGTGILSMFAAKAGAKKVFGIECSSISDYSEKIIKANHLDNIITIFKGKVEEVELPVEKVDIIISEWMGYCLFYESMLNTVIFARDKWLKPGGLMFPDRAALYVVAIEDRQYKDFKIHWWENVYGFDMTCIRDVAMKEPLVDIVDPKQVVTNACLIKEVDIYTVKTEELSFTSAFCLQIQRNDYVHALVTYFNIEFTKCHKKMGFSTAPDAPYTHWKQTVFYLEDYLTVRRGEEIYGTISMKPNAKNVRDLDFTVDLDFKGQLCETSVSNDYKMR
Method: as §3

A549 cells [4] = assay: CCK-8 cell viability assay in A549 cells; assay type: cell-based, human; details: concentrations of 0–50 μM
Method: (§4) To determine the effects of WCJ-394 on the inhibition of TGF-β1-induced epithelial–mesenchymal transition (EMT) in A549 cells, the characterized proteins were detected using the Western blotting assay.
(§5) Cells were seeded into a 96-well plate; after 12 h of attachment, the cells were treated with different concentrations (0–1,600 μΜ) of WCJ-394 for 48 h. Cell viability was assessed by a Cell Counting Kit-8 (CCK-8; MCE) according to the manufacturer’s instructions. Briefly, after treatment, the CCK-8 solution was added to the culture medium and incubated at 37°C for 1 h. Cell viability was assessed by measuring the absorbance at 450 nm. In the subsequent luciferase assays, the effects of WCJ-394 on the cell viability were examined in parallel to exclude the compound-induced cell death.

[5] = CCK-8 cell viability assay in A549 cells; assay type: cell-based, human; details: human, A549 cells treated for 48 h, read-out: IC50 (CC50), A549 cell viability
Method: as §4, §5

A549 cells [6] = assay: Western blot of TGF-β1-induced mesenchymal markers (EMT) in A549 cells; assay type: cell-based, human; details: TGF-β1 48 h, WCJ-394 pretreatment 5, 10, 20 μM
Method: as §1, §2

PRMT1 = PRMT1 (Homo sapiens, UniProt Q99873); assay: Radioactive PRMT1 methylation inhibition assay ([3H]-SAM, biotinylated histone H4 peptide); assay type: biochemical
PRMT1, sequence (Q99873 whole entry): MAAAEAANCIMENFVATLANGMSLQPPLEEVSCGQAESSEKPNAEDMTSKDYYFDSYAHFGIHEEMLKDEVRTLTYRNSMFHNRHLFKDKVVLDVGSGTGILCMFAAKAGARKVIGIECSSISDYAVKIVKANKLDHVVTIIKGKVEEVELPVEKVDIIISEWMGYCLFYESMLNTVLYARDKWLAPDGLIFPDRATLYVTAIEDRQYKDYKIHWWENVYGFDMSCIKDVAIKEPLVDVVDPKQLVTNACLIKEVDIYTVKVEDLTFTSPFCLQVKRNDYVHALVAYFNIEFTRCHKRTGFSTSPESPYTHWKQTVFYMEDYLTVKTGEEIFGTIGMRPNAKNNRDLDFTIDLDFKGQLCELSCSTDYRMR
Method: A series of 2,5-substituted furan and 2,4-substituted thiazole derivatives were synthesized and screened for their inhibitory effects on PRMT1 by using the radioactive PRMT1 methylation inhibition assay, which measured the amount of methyl groups that transferred from [^3H]-SAM to a biotinylated histone H4 peptide [ac-[…](Biotin)] (Tables 1–3).
The enzyme inhibitory activities and selectivity were measured by the radioisotope assay and AlphaLISA assay in ShangHai Chempartner Co., Ltd., according to the standard protocol. […] After 250 nL of compound solutions were added to the assay plate, 15 μl of PRMT1 enzyme solution or ×1 assay buffer for negative control was transferred to each well of prepared compound stock plates and the whole system (the final concentration of PRMT1 was 0.5 nM or 2 nM in the system) was incubated for 15 min at room temperature. […] Afterward, the reaction was stopped with the addition of 5 μl cold SAM solution to each well. Then, 25 μl volume per well was transferred to a Flashplate from the assay plate and incubated for a minimum of 1 h at room temperature. Finally, the Flashplate was washed with dH2O and 0.1% Tween-20 three times and then the reading plate in Microbeta using the program ^3H-Flashplate. The data were analyzed in GraphPad Prism 5 to obtain IC50 values.

MLEC = MLEC cell viability (CCK-8) under the luciferase assay condition; assay type: cell-based, mink; details: concentration up to 100 μM, same condition as luciferase assay
Method: as §5
The luciferase activity was measured in a luminometer.

PRMT4 = biological target: T1, PRMT4 (Homo sapiens, UniProt Q86X55); assay: AlphaLISA selectivity assay, PRMT4; assay type: biochemical; details: read-out: IC50 against PRMT4
T1 sequence (Q86X55 1-608): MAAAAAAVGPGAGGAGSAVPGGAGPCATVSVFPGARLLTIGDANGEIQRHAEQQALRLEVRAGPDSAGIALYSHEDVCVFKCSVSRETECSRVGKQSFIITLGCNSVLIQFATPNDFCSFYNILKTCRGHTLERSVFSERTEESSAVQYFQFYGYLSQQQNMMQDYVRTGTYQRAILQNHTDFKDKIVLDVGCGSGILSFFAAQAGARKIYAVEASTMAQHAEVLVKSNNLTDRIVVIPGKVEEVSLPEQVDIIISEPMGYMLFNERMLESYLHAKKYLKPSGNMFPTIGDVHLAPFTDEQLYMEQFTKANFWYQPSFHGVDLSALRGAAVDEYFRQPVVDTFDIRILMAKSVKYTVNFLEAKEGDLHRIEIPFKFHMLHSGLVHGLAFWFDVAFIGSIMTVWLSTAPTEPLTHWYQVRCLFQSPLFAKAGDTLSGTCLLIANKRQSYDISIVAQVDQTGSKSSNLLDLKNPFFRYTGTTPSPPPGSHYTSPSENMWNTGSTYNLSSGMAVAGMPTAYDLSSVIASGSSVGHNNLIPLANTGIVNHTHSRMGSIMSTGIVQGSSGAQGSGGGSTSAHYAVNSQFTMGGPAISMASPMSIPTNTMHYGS
Method: as §3

Question: With `CN(CCN)Cc1csc(-c2ccc(C(=N)N)nc2)n1` [Compound 1r, N′-[2-(2-Aminocarboximido-5-pyridyl)thiazol-4-yl-methyl]-N′-methylethylenediamine Hydrochloride] as the compound, how does the “expression level of ADMA” value (A549 cells [1]) read?
Answer: Its value is “significantly reduced in a concentration-dependent manner”.

Question: What about the “expression of DDAH” value (A549 cells [1]) of the same compound?
Answer: The value was “significantly decreased in a concentration-dependent manner”.

Question: What about the “expression of PRMT1” value (A549 cells [1]) of the same compound?
Answer: Its value is “not significantly affected”.

Question: What about the “expression of SDMA” value (A549 cells [1]) of the same compound?
Answer: The value was “not affected”.

Question: And the “TGF-β1-induced cell migration (scratched wound closure) at 24 h” value (A549 cells [2]; WCJ-394 pretreatment at 10 or 20 μM, 24 h)?
Answer: The value was “significantly inhibited”.

Question: And the “TGF-β1-induced cell migration (scratched wound closure) at 48 h” value (A549 cells [2]; WCJ-394 pretreatment, 48 h)?
Answer: The value was “retardation effect of WCJ-394 on cell migration was further detected”.

Question: What about the IC50 (PRMT6) of the same compound?
Answer: Its IC50 is 29.7 ± 2.03 µM.

Question: What about the IC50 (TGF-β signaling) of the same compound?
Answer: The IC50 was 17.7 µM.

Question: And the “number of migrated cells (transwell)” value (A549 cells [3])?
Answer: The value was “significantly decreased the number of migrated cells in a concentration-dependent manner”.

Question: And the IC50 (PRMT3)?
Answer: Its IC50 is 57.6 ± 0.62 µM.

Question: What about the IC50 (PRMT8) of the same compound?
Answer: Its IC50 is 5.71 ± 0.05 µM.

Question: And the “cytotoxicity in A549 cells” value (A549 cells [4])?
Answer: Its value is “did not result in any cytotoxicity”.

Question: And the IC50 at 48 h [5]?
Answer: The IC50 at 48 h was 584 µM.

Question: What about the “expression of EMT-related proteins (fibronectin, N-cadherin, MMP-2, α-SMA)” value (A549 cells [6]) of the same compound?
Answer: The value was “decreased (p < 0.05) by the pretreatment of WCJ-394 in a concentration-dependent manner”.

Question: And the “PRMT1 IC50 compared with SAH” value (PRMT1; fold weaker than SAH)?
Answer: Its value is “about two times weaker than SAH”.

Question: And the IC50 (PRMT1; radioactive methylation assay, read-out: IC50 (μM) against PRMT1)?
Answer: The IC50 was 1.21 ± 0.11 µM.

Question: And the inhibition at 10 µM (PRMT1; read-out: % Inhibition of PRMT1 (at 10 μM))?
Answer: The inhibition at 10 µM was 98.5 ± 0.04%.

Question: And the “cytotoxicity in MLEC (cell viability)” value (MLEC)?
Answer: The value was “without showing significant cytotoxicity”.

Question: What about the IC50 (PRMT4) of the same compound?
Answer: The IC50 was 1.64 ± 0.17 µM.
